The text below walks through data of US5603951A, “Cyclosporin-containing soft capsule compositions” (Hanmi Pharm. Ind. Co., Ltd., priority 1994, dated 1997).

The nature of this data set: Change in cosurfactant content of soft capsules over storage at room temperature (membrane permeation, gas chromatography). The data set is classed as physicochemical. On the procedure:
The content of the cosurfactant in each soft capsule preparation was analyzed by gas chromatography.
Conditions of gas chromatography for each cosurfactant
Column: Ultra 2 (Crosslinked 2% phenylmethyl silicone gun phase, 25 m
× 0.32 mm, thickness 0.52 μm)
Column temperature: 230° C. (Isothermal)
Detector: FID (Temperature: 270° C.)
Injection temperature: 275° C.
Carrier gas: He (Partition ratio 80:1)
Internal standard: Octyl alcohol
Column: HP20M (Carbowax 20M) (25 m × 0.32 mm, film thickness 0.3
Column temperature: 30° C. (Isothermal)
Detector: FID (Temperature: 200° C.)
Injection temperature: 150° C.
Internal standard: Diethyl ether

With `CO[C@H]1CO[C@H]2[C@@H]1OC[C@H]2OC` [dimethylisosorbide], the “Change of cosurfactant content in soft capsule after 10 days (in words)” value is “does not change in its content”. Turning to `CCO` [ethanol], under “soft capsule”, the “Cosurfactant content reduced by, of the initial content, after 10 days” value came out at 27.8%.
